Measurements published in the NIST ThermoML archive (doi:10.1021/acs.jced.8b00513).
± gives the expanded uncertainty stated by the source.

Details: 101.33 kPa, Liquid, Vibrating tube method

mass density (323.15 K): 988.035 ± 1 kg/m3
mass density (328.15 K): 985.693 ± 1 kg/m3
mass density (333.15 K): 983.196 ± 0.98 kg/m3
mass density (338.15 K): 980.551 ± 0.98 kg/m3
mass density (343.15 K): 977.765 ± 0.98 kg/m3
SMILES: O [water]
